According to patent publication US6750247B2, “Sponge-derived terpenoids and methods of use” (Galileo Laboratories, Inc., priority 2001, dated 2004):

Test system: primary hippocampal neuronal cells
Assay: Hippocampal anoxia-reoxygenation cell death assay
Format: cell-based, mice
Settings: for Dose for Max. Activity / Percent Activity: 5 hr hypoxia, 20-24 hr reoxygenation; for Percent Activity: at dose for max. activity, live neurons by Cell Tracker Green; for cell viability: compared to hypoxia-reoxygenated cells
Description: Neurobasal medium (Life Technologies, Rockville, Md.) with 1× B27 supplement (Life Technologies), […], 25 μM L-glutaxnic acid, and 1× Penicillin/Streptomycin was prepared fresh prior to use. Hank's Basic Salt Solution (HBSS, Ca/Mg-free) was prepared by preparing 1× Hanks CMF (Gibco) supplemented with HEPES (10 mM, pH 7.3), sodium bicarbonate (0.35%), 1× Penicillin/Streptomycin, and 1 mM pyruvate. Poly-D-lysine (Sigma, St. Louis, Mo.) was prepared by filtering a 50 μg/ml solution through 0.2 μm filter tubes. Sigmacote (Sigma, St. Louis, Mo.). Plastic Culture Flasks (T75 cm^2) or 12-well cell culture plates were then treated with Poly-D-Lysine (Sigma, St. Louis, Mo.).
Pregnant female mice (E18-E19) were euthanized with CO2 prior to removal of the uterus, which was then placed in a sterile plastic petri dish. The embryos were removed from the sac, and the embryonic brains removed and immersed in cold (4° C.) Hepes Buffered Salt Solution (HBSS; Ca/Mg free; Life Technologies) in a small petri dish. Hippocampi were then removed from the brains under a dissecting microscope and were placed on a paraffin-covered dish. The meninges were stripped away and the dissected hippocampi were collected in a small petri dish in HBSS. The hippocampi were transferred to a 15-ml centrifuge tube (normally 10-12 brains per tube) filled with HBSS. The tube containing the brains was centrifuged at 1000 rpm for 2 minutes in a GH 3.8 A rotor in an Allegra Centrifuge (Beckman Instruments, Fullerton, Calif.). The supernatant was removed, 2 ml of HBSS was added to the hippocampi in the tube, and the resulting suspension was triturated 2 times each with long-tipped siliconized glass pipettes having progressively smaller apertures, starting with a pipette with a standard size opening (approximately 1.0 mm diameter), following with one having an aperture of half standard size (approximately 0.5 mm diameter), then with one having an aperture about one-half that size (0.25 mm diameter). The suspension was then centrifuged again at 1000 rpm for 2 min in a tabletop centrifuge, the supernatant was discarded, and 2 ml of Neurobasal/B27i (with antibiotics) was added to the tube. The trituration procedure described above was then repeated on this suspension.
The density of cells was determined on a small aliquot of cells using standard counting procedures and correcting for cell viability by trypan blue stain exclusion. Using this procedure, the expected yield is 3×10^5-6×10^5 cells/brain. Cells were then added to PDL-coated 12 well plates, flasks or MetTek dishes in Neurobasal/B27I at a density of about 1.5×10^6 cells (T75 flask) or about 100,000 cells/well of a 12-well plate. Plated cells were incubated at 37° C. with 5% CO2 in air atmosphere. Media was renewed after 3-4 days by replacing half of it with fresh Neurobasal/B27m medium, containing 5 μM cytosine arabinoside (AraC). Seven to eight days from the initial culture, the media was renewed again, by removing one-half or it and replacing with an equal amount of fresh Neurobasal/B27m medium (without Ara-C).
This assay was used to induce ischemia by anoxia-reoxygenation in cultured hippocampal neuronal cells. Test compounds were added to assess potency and efficacy against ischemia-induced neuronal cell injury and cell death.
Neurobasal media, NoG neurobasal media, B27 supplement and B27 Supplement minus AO were obtained from Life Technologies. Neurobasal/B27 medium was prepared with 2× B27 minus AO supplement, 0.5 mM L-glutamine and 0.25× penicillin/streptomycin. Cell Tracker Green was obtained from Molecular Probes and a fresh 5 μM solution was prepared from 10 mM stock just before use. NoG-Neurobasal contains NoG neurobasal medium plus 0.5 mM glucose, 0.1 mM L-glutamine and 0.25× Penicillin/Streptomycin. Primary hippocampal neuronal cells were prepared according to the methods described above and were cultured in poly-D-lysine coated 12 well plates for 10-11 days prior to use. […]

SMILES	Dose for Max. Activity [µg/mL]	Percent Activity	cell viability
CC1=CCC[C@H](C)[C@]1(C)CC/C(C)=C/CCc1ccoc1 [(+)-subersin (2), 3-[4-methyl-6-(1,2,6-trimethyl-cyclohex-2-enyl)-hex-3-enyl]-furan]	1	30%	increased cell viability
CC1=C(CC/C(C)=C/CC/C(C)=C/Cc2cc(O)ccc2O)C(C)(C)CCC1 [jaspaquinol (3), 2-[3,7-dimethyl-9-(2,6,6-trimethyl-cyclohex-1-enyl)-nona-2,6-dienyl]-benzene-1,4-diol]	0.1	20%	increased cell viability
CC1=C(CC/C(C)=C/Cc2cc(C(=O)O)ccc2O)[C@]2(C)CCCC(C)(C)[C@H]2CC1 [(−)-subersic acid (1), 4-hydroxy-3-[3-methyl-5-(2,5,5,8a-tetramethyl-3,4,4a,5,6,7,8,8a-octahydro-naphthalen-1-yl)-pent-2-enyl]-benzoic acid]		No activity at 10 μg/mL	
